# According to PubChem BioAssay (NCI):
#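 Values below derive from 48-hour exposures of cells grown in 96-well plates, with endpoints linearly interpolated between the two concentrations bracketing the appropriate inhibition level. The concentration for full growth arrest is given as TGI.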
# Tests used:
# Experiment in all cases: DTP human tumour cell line panel, 48 h
# [1] = system: COLO 205 colon
# [2] = system: SF-295 CNS
# [3] = system: UO-31 renal
# [4] = system: HL-60(TB) leukemia
# [5] = system: K-562 leukemia
# [6] = system: HT29 colon
# [7] = system: CCRF-CEM leukemia
# [8] = system: MOLT-4 leukemia
# [9] = system: BT-549 breast
# [10] = system: CAKI-1 renal
# [11] = system: TK-10 renal
# [12] = system: OVCAR-8 ovarian
# [13] = system: SW-620 colon
# [14] = system: U251 CNS
# [15] = system: KM12 colon
# [16] = system: IGROV1 ovarian
# [17] = system: UACC-62 melanoma
# [18] = system: M14 melanoma
# [19] = system: HCT-116 colon
# [20] = system: DU-145 prostate
# [21] = system: HOP-62 NSCLC
# [22] = system: T-47D breast
# [23] = system: SF-539 CNS
# [24] = system: OVCAR-4 ovarian
# [25] = system: SN12C renal
# [26] = system: HCT-15 colon
# [27] = system: MDA-N
# [28] = system: HCC-2998 colon
# [29] = system: SF-268 CNS
# [30] = system: ACHN renal
# [31] = system: HOP-92 NSCLC
# [32] = system: NCI-H226 lung
# [33] = system: MDA-MB-435
# [34] = system: SK-OV-3 ovarian
# [35] = system: RPMI-8226 leukemia
# [36] = system: NCI/ADR-RES ovarian
# [37] = system: OVCAR-5 ovarian
# [38] = system: 786-0 renal
# [39] = system: UACC-257 melanoma
# [40] = system: SNB-19 CNS
# [41] = system: NCI-H522 lung
# [42] = system: NCI-H460 lung
# [43] = system: NCI-H23 lung
# [44] = system: SK-MEL-2 melanoma
# [45] = system: MDA-MB-231 breast
# [46] = system: RXF 393 renal
# [47] = system: LOX IMVI melanoma
# [48] = system: SNB-75 CNS
# [49] = system: HS 578T breast
# [50] = system: PC-3 prostate
# [51] = system: A498 renal
# [52] = system: EKVX NSCLC
# [53] = system: SK-MEL-5 melanoma
# [54] = system: A549 NSCLC
# [55] = system: MCF7 breast
# [56] = system: MALME-3M melanoma
# [57] = system: OVCAR-3 ovarian
# [58] = system: SK-MEL-28 melanoma
smiles,measurement,setting,value
Cc1cc(O)c(/C=N/c2nc(-c3ccc([N+](=O)[O-])cc3)cs2)c(=O)o1,TGI,[1],> 100 µM
same,TGI,[2],> 100 µM
same,TGI,[3],> 100 µM
same,TGI,[4],75 µM
same,TGI,[5],> 100 µM
same,TGI,[6],> 100 µM
same,TGI,[7],> 100 µM
same,TGI,[8],> 100 µM
same,TGI,[9],> 100 µM
same,TGI,[10],> 100 µM
same,TGI,[11],> 100 µM
same,TGI,[12],> 100 µM
same,TGI,[13],> 100 µM
same,TGI,[14],> 100 µM
same,TGI,[15],> 100 µM
same,TGI,[16],> 100 µM
same,TGI,[17],> 100 µM
same,TGI,[18],> 100 µM
same,TGI,[19],> 100 µM
same,TGI,[20],> 100 µM
same,TGI,[21],> 100 µM
same,TGI,[22],> 100 µM
same,TGI,[23],> 100 µM
same,TGI,[24],> 100 µM
same,TGI,[25],> 100 µM
same,TGI,[26],> 100 µM
same,TGI,[27],> 100 µM
same,TGI,[28],> 100 µM
same,TGI,[29],> 100 µM
same,TGI,[30],> 100 µM
same,TGI,[31],> 100 µM
same,TGI,[32],> 100 µM
same,TGI,[33],> 100 µM
same,TGI,[34],> 100 µM
same,TGI,[35],> 100 µM
same,TGI,[36],> 100 µM
same,TGI,[37],> 100 µM
same,TGI,[38],> 100 µM
same,TGI,[39],> 100 µM
same,TGI,[40],> 100 µM
same,TGI,[41],> 100 µM
same,TGI,[42],> 100 µM
same,TGI,[43],> 100 µM
same,TGI,[44],> 100 µM
same,TGI,[45],> 100 µM
same,TGI,[46],> 100 µM
same,TGI,[47],> 100 µM
same,TGI,[48],> 100 µM
same,TGI,[49],> 100 µM
same,TGI,[50],> 100 µM
same,TGI,[51],> 100 µM
same,TGI,[52],> 100 µM
same,TGI,[53],> 100 µM
same,TGI,[54],> 100 µM
same,TGI,[55],> 100 µM
COc1ccc(OC)c2c1C(=O)C(=O)C(Cl)=C2O,TGI,[1],> 100 µM
same,TGI,[2],> 100 µM
same,TGI,[3],> 100 µM
same,TGI,[56],> 100 µM
same,TGI,[4],> 100 µM
same,TGI,[5],> 100 µM
same,TGI,[6],> 100 µM
same,TGI,[7],> 100 µM
same,TGI,[8],> 100 µM
same,TGI,[9],> 100 µM
same,TGI,[10],> 100 µM
same,TGI,[11],> 100 µM
same,TGI,[12],> 100 µM
same,TGI,[13],> 100 µM
same,TGI,[14],> 100 µM
same,TGI,[15],> 100 µM
same,TGI,[16],> 100 µM
same,TGI,[17],> 100 µM
same,TGI,[18],> 100 µM
same,TGI,[19],> 100 µM
same,TGI,[20],> 100 µM
same,TGI,[21],> 100 µM
same,TGI,[22],> 100 µM
same,TGI,[23],> 100 µM
same,TGI,[24],> 100 µM
same,TGI,[26],> 100 µM
same,TGI,[27],> 100 µM
same,TGI,[28],> 100 µM
same,TGI,[29],> 100 µM
same,TGI,[30],> 100 µM
same,TGI,[31],> 100 µM
same,TGI,[32],> 100 µM
same,TGI,[33],> 100 µM
same,TGI,[34],> 100 µM
same,TGI,[35],> 100 µM
same,TGI,[36],> 100 µM
same,TGI,[37],> 100 µM
same,TGI,[57],> 100 µM
same,TGI,[38],> 100 µM
same,TGI,[58],> 100 µM
same,TGI,[39],> 100 µM
same,TGI,[40],> 100 µM
same,TGI,[41],> 100 µM
same,TGI,[42],> 100 µM
same,TGI,[43],> 100 µM
same,TGI,[44],> 100 µM
same,TGI,[45],> 100 µM
same,TGI,[46],> 100 µM
same,TGI,[47],> 100 µM
same,TGI,[48],> 100 µM
same,TGI,[49],> 100 µM
same,TGI,[50],> 100 µM
same,TGI,[51],> 100 µM
same,TGI,[53],> 100 µM
same,TGI,[54],> 100 µM
same,TGI,[55],> 100 µM
C#CCOC(=O)C(N)C(C)O (stereo not drawn),TGI,[1],> 100 µM
same,TGI,[2],> 100 µM
same,TGI,[3],> 100 µM
same,TGI,[56],> 100 µM
same,TGI,[4],> 100 µM
same,TGI,[5],> 100 µM
same,TGI,[6],> 100 µM
same,TGI,[7],> 100 µM
same,TGI,[8],> 100 µM
same,TGI,[9],> 100 µM
same,TGI,[10],> 100 µM
same,TGI,[11],> 100 µM
same,TGI,[12],> 100 µM
same,TGI,[13],> 100 µM
same,TGI,[14],> 100 µM
same,TGI,[15],> 100 µM
same,TGI,[16],> 100 µM
same,TGI,[17],> 100 µM
same,TGI,[18],> 100 µM
same,TGI,[19],> 100 µM
same,TGI,[20],> 100 µM
same,TGI,[21],> 100 µM
same,TGI,[22],> 100 µM
same,TGI,[25],> 100 µM
same,TGI,[27],> 100 µM
same,TGI,[29],> 100 µM
same,TGI,[30],> 100 µM
same,TGI,[31],> 100 µM
same,TGI,[32],> 100 µM
same,TGI,[33],> 100 µM
same,TGI,[34],> 100 µM
same,TGI,[35],> 100 µM
same,TGI,[36],> 100 µM
same,TGI,[37],> 100 µM
same,TGI,[57],> 100 µM
same,TGI,[38],> 100 µM
same,TGI,[58],> 100 µM
same,TGI,[39],> 100 µM
same,TGI,[41],> 100 µM
same,TGI,[43],> 100 µM
same,TGI,[44],> 100 µM
same,TGI,[45],> 100 µM
same,TGI,[46],> 100 µM
same,TGI,[47],> 100 µM
same,TGI,[48],> 100 µM
same,TGI,[49],> 100 µM
same,TGI,[50],> 100 µM
same,TGI,[51],> 100 µM
same,TGI,[52],> 100 µM
same,TGI,[53],> 100 µM
same,TGI,[54],> 100 µM
same,TGI,[55],> 100 µM
